Test results from patent publication US20260209223A1, “FGFR3 INHIBITOR COMPOUNDS” (TYRA BIOSCIENCES, INC., priority 2022, published 2026).

Legend:
[1] = target: T1, Ba/F3 ETV5-FGFR4 (Homo sapiens, UniProt P22455); assay: Ba/F3 cell viability assay (CellTiter-Glo 2.0); format: cell-based; conditions: Ba/F3 cell data, ETV5-FGFR4 fusion, 48 hours
T1 construct: host or cells: Ba/F3; the other entry of the earlier key: ETV5 (P41161, ETS translocation variant 5)
From the text: Experimental Purpose: Recombinant kinase fusions are transduced into parental Ba/F3, which becomes dependent upon this constitutive kinase activity for IL3-independent survival. Inhibition of kinase activity leads to cell death, which is monitored using CellTiter-Glo® 2.0 (Promega) which measures intracellular ATP concentration that in turn serves as a marker for viability. BCR-FGFR1 Ba/F3, BCR-FGFR2 and FGFR3-BAIAP2L1 Ba/F3 were obtained from Advanced Cellular Dynamics (Seattle, WA). ETV6-FGFR4 was obtained from Kyinno (Waltham, MA).
Cell Viability Assay Procedure: Cell Titer-Glo® 2.0 Luminescent cell viability assay reagent was purchased from Promega (Madison, WI). Ba/F3 cell lines were cultured in RPMI1640 media supplemented with 10% fetal bovine serum. Cultures were maintained at 37° C. in a humidified atmosphere of 5% CO2 and 95% air.
Cells were plated in 96-well clear bottom/white plates (Corning #3903) at 10,000 cells/well in 100 μl of media, incubated overnight. The next day, test compound DMSO stock solutions were made at 10 mM and 2 μM final concentration. Compounds were then added to cells in a 9-dose, 10-fold dilution series starting at 30 μM with an HP 300e Digital Dispenser (each dose was applied in triplicate). DMSO was backfilled to each well up to 301 nL total volume of test compound+DMSO, and a total of 301 nL DMSO was added to a control/no test compound well in triplicate. The cells in cell culture plates were incubated with the compounds at 37° C. and 5% CO2 for 48 hours. Then 50 μl of Cell Titer Glo 2.0 reagent was added to each well of the cell culture plates. The contents were covered from light and mixed on an orbital shaker at room temperature for 10 min. Luminescence was recorded by a Synergy H1 Microplate Reader (Biotek, Winooski, VT). Cells were assessed as a percentage of DMSO only treated control cells. Curves were plotted and IC50 values were calculated using the GraphPad Prism 8 program based on a sigmoidal dose-response equation (4 parameter).

[2] = target: T2, Ba/F3 FGFR3-BAIAP2L1 (Homo sapiens, UniProt P22607); assay: Ba/F3 cell viability assay (CellTiter-Glo 2.0); format: cell-based; conditions: Ba/F3 cell data, FGFR3-BAIAP2L1 fusion, 48 hours
T2 construct: BAIAP2L1 (fusion partner, Q9UHR4 if human); host or cells: Ba/F3; the other entry of the earlier key: BAIAP2L1 (Q9UHR4, BAR/IMD domain-containing adapter protein 2-like 1)

[3] = target: T3, Ba/F3 BCR-FGFR2 (Homo sapiens, UniProt P21802); assay: Ba/F3 cell viability assay (CellTiter-Glo 2.0); format: cell-based; conditions: Ba/F3 cell data, BCR-FGFR2 fusion, 48 hours
T3 construct: BCR (fusion partner); host or cells: Ba/F3; the other entry of the earlier key: BCR (P11274, Breakpoint cluster region protein)

[4] = target: T4, Ba/F3 BCR-FGFR1 (Homo sapiens, UniProt P11362); assay: Ba/F3 cell viability assay (CellTiter-Glo 2.0); format: cell-based; conditions: Ba/F3 cell data, BCR-FGFR1 fusion, 48 hours
T4 construct: BCR (fusion partner); host or cells: Ba/F3; the other entry of the earlier key: BCR (P11274, Breakpoint cluster region protein)

[5] = target: T5, FGFR1 (Homo sapiens, UniProt P11362); assay: Kinase binding assay (Kd), kinase-tagged T7 phage, affinity beads, qPCR; conditions: in vitro binding assay, 11-point 3-fold dilution series
T5 construct: made in house; host or cells: E. coli (BL21-derived) infected with T7 phage

[6] = target: T6, FGFR3 (Homo sapiens, UniProt P22607); assay: as above; conditions: in vitro binding assay, 11-point 3-fold dilution series
T6 construct: made in house; host or cells: E. coli (BL21-derived) infected with T7 phage

[7] = target: T7, FGFR4 (Homo sapiens, UniProt P22455); assay: as above; conditions: in vitro binding assay, 11-point 3-fold dilution series
T7 construct: made in house; host or cells: E. coli (BL21-derived) infected with T7 phage

[8] = target: T8, FGFR2 (Homo sapiens, UniProt P21802); assay: as above; conditions: in vitro binding assay, 11-point 3-fold dilution series
T8 construct: made in house; host or cells: E. coli (BL21-derived) infected with T7 phage

[9] = target: T9, FGFR3 (V555M) (Homo sapiens, UniProt P22607, V555M); assay: as above; conditions: in vitro binding assay, 11-point 3-fold dilution series
T9 construct: made in house; host or cells: E. coli (BL21-derived) infected with T7 phage

[10] = test system: RT112/84; assay: Cancer cell line cell viability assay (CellTiter-Glo 2.0); format: cell-based; conditions: Homo sapiens; RT112/84 (FGFR3-fusion) cell viability, 72 hours
From the text: (§1) Experimental Purpose: To detect the change of intracellular ATP by Cell Titer-Glo® and to evaluate the inhibitory effect of the compounds on cancer cell lines by determining the in vitro IC50 value of the compounds.
(§2) Cell Titer-Glo® 2.0 Luminescent cell viability assay reagent was purchased from Promega (Madison, WI). RT112/84 and KG-1 cell lines were purchased from American Type Culture Collection (Manassas, VA). UM-UC-14 cell line was purchased from Sigma (St. Louis, MO). RT112/84, UM-UC-14, and KG-1 cells were cultured in RPMI1640 media supplemented with 10% fetal bovine serum. Cultures were maintained at 37° C. in a humidified atmosphere of 5% CO2 and 95% air.
(§3) Cell Viability Assay Procedure: Cells were plated in 96-well clear bottom/white plates (Corning #3903) at 10,000 cells/well in 100 μl of media, incubated overnight. The next day, test compound DMSO stock solutions were made at 10 mM and 2 μM final concentration.
(§4) Compounds were then added to cells in a 9-dose, […] dilution series starting at 30 μM with an HP 300e Digital Dispenser (each dose was applied in triplicate). DMSO was backfilled to each well up to 301 nL total volume of test compound+DMSO, and a total of 301 nL DMSO was added to a control/no test compound well in triplicate. The cells in cell culture plates were incubated with the compounds at 37° C. and 5% CO2 for 72 hours. Then 50 μl of Cell Titer Glo 2.0 reagent was added to each well of the cell culture plates. The contents were covered from light and mixed on an orbital shaker at room temperature for 10 min.
(§5) Luminescence was recorded by a Synergy H1 Microplate Reader (Biotek, Winooski, VT). Cells were assessed as a percentage of DMSO only treated control cells. Curves were plotted and IC50 values were calculated using the GraphPad Prism 8 program based on a sigmoidal dose-response equation (4 parameter).

[11] = test system: KG-1; assay: as above; format: cell-based; conditions: Homo sapiens; KG-1 (FGFR1-fusion) cell viability, 72 hours
From the text: as §1, §2, §3, §4, §5

[12] = test system: KatoIIII; assay: as above; format: cell-based; conditions: 72 hours

T8 sequence (P21802 22-821): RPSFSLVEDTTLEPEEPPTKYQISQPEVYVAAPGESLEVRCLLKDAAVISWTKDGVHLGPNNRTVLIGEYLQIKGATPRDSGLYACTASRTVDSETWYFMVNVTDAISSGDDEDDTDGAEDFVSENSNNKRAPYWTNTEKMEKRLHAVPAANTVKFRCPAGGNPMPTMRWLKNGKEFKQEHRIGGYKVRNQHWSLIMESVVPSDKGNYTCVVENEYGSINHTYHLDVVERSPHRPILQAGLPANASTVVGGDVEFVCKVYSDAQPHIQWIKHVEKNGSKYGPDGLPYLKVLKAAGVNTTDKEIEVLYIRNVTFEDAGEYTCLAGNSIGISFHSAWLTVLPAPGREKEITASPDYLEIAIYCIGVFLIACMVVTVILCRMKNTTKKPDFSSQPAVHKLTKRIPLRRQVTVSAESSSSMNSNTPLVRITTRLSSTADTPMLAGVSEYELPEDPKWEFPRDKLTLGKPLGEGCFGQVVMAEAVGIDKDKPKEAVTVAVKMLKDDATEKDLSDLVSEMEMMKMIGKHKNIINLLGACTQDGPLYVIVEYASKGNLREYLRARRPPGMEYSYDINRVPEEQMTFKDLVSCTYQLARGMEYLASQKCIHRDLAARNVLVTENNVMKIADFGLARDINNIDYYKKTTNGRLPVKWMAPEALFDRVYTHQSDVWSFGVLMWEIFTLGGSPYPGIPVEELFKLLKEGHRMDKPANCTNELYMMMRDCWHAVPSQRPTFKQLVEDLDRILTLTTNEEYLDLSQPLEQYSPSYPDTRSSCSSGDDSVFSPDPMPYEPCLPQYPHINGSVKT
T9 sequence (P22607 23-806 V555M): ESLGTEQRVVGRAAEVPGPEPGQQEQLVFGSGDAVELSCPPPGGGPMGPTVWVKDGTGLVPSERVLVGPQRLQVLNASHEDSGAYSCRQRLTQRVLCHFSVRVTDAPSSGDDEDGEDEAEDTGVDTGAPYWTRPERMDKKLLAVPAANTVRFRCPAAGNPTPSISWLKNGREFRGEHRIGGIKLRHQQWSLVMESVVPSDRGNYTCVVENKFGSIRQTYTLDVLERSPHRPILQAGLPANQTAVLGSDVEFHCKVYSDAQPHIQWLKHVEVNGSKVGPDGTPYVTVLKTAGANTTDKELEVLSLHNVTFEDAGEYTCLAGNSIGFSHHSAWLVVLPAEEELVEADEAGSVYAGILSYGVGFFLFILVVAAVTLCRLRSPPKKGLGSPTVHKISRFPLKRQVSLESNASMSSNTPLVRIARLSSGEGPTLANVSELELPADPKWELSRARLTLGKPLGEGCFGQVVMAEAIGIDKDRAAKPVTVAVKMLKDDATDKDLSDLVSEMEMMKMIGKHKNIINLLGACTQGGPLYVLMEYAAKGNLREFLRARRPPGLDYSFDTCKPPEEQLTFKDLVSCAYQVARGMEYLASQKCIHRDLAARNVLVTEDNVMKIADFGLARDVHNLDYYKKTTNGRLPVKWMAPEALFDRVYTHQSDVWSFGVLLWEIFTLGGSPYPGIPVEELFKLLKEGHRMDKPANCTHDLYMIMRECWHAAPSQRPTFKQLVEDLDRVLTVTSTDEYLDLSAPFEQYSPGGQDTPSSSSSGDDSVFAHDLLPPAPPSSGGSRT
T2 sequence (P22607 397-758 limits assumed): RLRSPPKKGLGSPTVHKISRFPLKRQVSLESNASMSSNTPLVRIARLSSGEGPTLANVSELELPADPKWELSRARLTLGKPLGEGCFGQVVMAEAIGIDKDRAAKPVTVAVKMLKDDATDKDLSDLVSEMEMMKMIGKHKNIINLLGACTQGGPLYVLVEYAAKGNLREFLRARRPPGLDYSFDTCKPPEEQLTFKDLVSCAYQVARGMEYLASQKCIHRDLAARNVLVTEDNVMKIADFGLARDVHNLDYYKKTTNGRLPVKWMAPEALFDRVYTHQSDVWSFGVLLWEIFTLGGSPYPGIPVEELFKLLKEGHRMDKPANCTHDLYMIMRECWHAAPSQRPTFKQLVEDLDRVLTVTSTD
T1 sequence (P22455 467-755 limits assumed): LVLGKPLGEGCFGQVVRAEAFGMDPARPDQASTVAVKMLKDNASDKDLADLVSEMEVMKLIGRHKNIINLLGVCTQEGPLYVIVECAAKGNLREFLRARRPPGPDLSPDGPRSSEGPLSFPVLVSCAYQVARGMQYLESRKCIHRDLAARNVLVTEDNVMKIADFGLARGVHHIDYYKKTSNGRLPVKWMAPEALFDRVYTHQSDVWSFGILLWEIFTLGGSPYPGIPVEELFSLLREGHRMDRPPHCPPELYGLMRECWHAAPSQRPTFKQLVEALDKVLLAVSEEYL
T6 sequence (P22607 23-806): as the sequence (P22607 23-806 V555M) above, with M533V counted along it
T5 sequence (P11362 22-822): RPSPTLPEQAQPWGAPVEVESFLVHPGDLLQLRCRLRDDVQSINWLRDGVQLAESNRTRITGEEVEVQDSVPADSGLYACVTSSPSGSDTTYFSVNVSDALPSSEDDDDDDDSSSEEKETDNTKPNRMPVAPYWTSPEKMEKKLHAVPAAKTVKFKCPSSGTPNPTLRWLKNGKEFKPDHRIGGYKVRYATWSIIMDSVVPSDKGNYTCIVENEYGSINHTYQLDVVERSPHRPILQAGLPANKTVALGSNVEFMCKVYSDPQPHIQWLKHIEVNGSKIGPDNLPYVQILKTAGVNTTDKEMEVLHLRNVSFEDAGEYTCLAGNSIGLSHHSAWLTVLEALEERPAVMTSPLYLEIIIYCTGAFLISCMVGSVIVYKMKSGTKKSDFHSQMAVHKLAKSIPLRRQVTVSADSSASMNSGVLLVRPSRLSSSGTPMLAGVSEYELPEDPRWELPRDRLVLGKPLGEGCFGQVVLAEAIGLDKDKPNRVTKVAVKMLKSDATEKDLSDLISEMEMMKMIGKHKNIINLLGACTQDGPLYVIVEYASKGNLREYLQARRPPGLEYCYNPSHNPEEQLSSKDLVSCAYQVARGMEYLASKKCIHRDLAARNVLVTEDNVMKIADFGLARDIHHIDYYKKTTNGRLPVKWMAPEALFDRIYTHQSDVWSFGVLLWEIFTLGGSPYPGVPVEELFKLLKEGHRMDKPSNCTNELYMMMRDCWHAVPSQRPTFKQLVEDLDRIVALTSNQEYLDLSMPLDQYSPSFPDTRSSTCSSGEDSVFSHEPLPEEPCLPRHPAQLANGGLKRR
T7 sequence (P22455 22-802): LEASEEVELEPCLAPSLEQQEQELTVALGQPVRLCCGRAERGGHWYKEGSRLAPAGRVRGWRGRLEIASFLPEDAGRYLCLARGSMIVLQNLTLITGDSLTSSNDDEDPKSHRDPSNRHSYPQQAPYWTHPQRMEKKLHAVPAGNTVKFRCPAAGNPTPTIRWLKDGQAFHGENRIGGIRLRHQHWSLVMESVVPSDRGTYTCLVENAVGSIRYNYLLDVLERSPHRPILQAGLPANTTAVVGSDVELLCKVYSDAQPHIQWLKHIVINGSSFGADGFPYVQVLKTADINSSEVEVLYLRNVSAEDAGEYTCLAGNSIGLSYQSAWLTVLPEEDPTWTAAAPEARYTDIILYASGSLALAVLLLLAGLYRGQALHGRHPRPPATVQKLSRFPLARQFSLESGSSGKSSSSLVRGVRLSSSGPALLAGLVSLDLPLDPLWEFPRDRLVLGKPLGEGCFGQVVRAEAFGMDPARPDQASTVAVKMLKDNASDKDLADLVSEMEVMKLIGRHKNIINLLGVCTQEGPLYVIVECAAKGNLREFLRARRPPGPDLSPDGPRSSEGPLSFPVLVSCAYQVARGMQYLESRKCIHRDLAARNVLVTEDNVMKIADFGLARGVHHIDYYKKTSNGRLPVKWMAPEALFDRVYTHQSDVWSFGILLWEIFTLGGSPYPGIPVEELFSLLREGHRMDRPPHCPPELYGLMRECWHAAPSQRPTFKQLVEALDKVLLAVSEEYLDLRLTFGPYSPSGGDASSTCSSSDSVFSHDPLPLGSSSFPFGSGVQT
T4 sequence (P11362 478-767 limits assumed): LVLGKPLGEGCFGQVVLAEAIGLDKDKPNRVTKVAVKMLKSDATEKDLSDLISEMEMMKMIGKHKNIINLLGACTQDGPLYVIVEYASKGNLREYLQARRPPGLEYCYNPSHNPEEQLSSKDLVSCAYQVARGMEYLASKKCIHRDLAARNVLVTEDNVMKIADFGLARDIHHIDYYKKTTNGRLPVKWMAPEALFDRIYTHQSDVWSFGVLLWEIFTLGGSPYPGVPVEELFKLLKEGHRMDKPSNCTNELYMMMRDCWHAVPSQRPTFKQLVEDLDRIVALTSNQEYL
T3 sequence (P21802 481-770 limits assumed): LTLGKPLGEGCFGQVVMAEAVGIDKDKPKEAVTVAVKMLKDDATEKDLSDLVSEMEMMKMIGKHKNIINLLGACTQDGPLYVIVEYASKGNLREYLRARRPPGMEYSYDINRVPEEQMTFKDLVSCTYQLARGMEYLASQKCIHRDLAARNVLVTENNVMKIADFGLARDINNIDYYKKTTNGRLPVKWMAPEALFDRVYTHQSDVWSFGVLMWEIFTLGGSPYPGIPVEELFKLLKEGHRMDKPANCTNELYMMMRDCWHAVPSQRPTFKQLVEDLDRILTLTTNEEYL

| Structure (SMILES) | Kd [1] | Kd [2] | Kd [3] | Kd [4] | Kd [5] | Kd [6] | Kd [7] | Kd [8] | Kd [9] | IC50 [10] | IC50 [11] | IC50 [12] |
| --- | --- | --- | --- | --- | --- | --- | --- | --- | --- | --- | --- | --- |
| C=CC(=O)N1CCC2(CC1)CC(n1nnc(-c3cc(O[C@H](CO)c4ccc(F)cn4)c4c(C#N)cnn4c3)c1C)C2 [Example 13, (S)-6-(1-(7-acryloyl-7-azaspiro[3.5]nonan-2-yl)-5-methyl-1H-1,2,3-triazol-4-yl)-4-(1-(5-fluoropyridin-2-yl)-2-hydroxyethoxy)pyrazolo[1,5-a]pyridine-3-carbonitrile] | 250 to 1000 nM | 0.1 to 100 nM | 100 to 250 nM | 250 to 1000 nM | 0.1 to 100 nM | 0.1 to 100 nM | 0.1 to 100 nM | 0.1 to 100 nM | 0.1 to 100 nM | 100 to 250 nM | 0.1 to 100 nM | 100 to 250 nM |
| C=CC(=O)N1CCC2(CC1)CC(n1ncc(-c3cc(O[C@H](CO)c4ccccn4)c4c(C#N)cnn4c3)c1C)C2 [Example 8, (S)-6-(1-(7-acryloyl-7-azaspiro[3.5]nonan-2-yl)-5-methyl-1H-pyrazol-4-yl)-4-(2-hydroxy-1-(pyridin-2-yl)ethoxy)pyrazolo[1,5-a]pyridine-3-carbonitrile] | 250 to 1000 nM | 0.1 to 100 nM | 100 to 250 nM | 100 to 250 nM | 0.1 to 100 nM | 0.1 to 100 nM | 0.1 to 100 nM | 0.1 to 100 nM | 0.1 to 100 nM | 100 to 250 nM | 100 to 250 nM | 100 to 250 nM |
